Tested on: T24 cells
Experiment: Tumor cell survival, cell number by hemocytometer
Format: cell-based, human
Conditions: T24, 400 nM, 72 hours
Protocol: To determine the effects of ISIS 12790 on tumor cell survival, T24, A549, Mia Paca II, and SW480 cells were treated with either ISIS 12790 or ISIS 13706 (a 20-mer with identical nucleotide composition but containing 7 mismatches relative to the target) and surviving cells counted 72 hours later.
For experiments where cell number was measured directly by hemocytometer, cells were plated in six well dishes 24 hr prior to the experiment and transfected at approximately 50-70% confluency with various phosphorothioate oligonucleotides at 400 nM, as described above. Following a single transfection, the cells were allowed to recover 72 hours. After 72 hr the cells were washed, trypsinized, and cell number was determined by hemocytometer. For each experiment, treatments were performed in triplicate wells. The number of cells corresponding to each well was determined twice.
Statistical analysis of mRNA levels and cell survival data were performed using BMDP Statistical package, Version 7.0 (BMDP Statistical Software, Inc., Los Angeles, Calif.). Data were subjected to ANOVA and the results were expressed in terms of F-values, t-values, and significance. For cell survival data, analyses included repeated measurements with 3 between factors (drug, concentration, and position). For mRNA levels only the 3 between factors were considered. Global comparisons were performed with F-tests and pairwise comparisons with t-tests. In each case, since there was no interaction with position, results were pooled and analyzed with two between factors (drug and concentration). Treatment with ISIS 12790 was associated with decreased cell number in all four tumor cell lines (see Table 4). The decrease in cell number observed in T24 cells was 79%. The decrease observed in the other three cell lines was: A549, 98% decrease; Mia Paca II, 85% decrease; SW480, 81% decrease.

## ISIS 12790: phosphorothioate oligodeoxynucleotide TGGTCTGCAGTTAGGGTCAG, SEQ ID NO 15, 3'-UTR 2230-2249, non-allele specific (DNA, all phosphorothioate, methylation of C not given here)
  % Cell Killing: 79%
  % Cell Survival: 21%
  decrease in cell number: 79%
